Measured values reported in patent US20250255929A1, “METHODS FOR REDUCING RISKS ASSOCIATED WITH HEART FAILURE AND FACTORS ASSOCIATED THEREWITH” (Stealth BioTherapeutics Inc., priority 2012, published 2025).
Several values for one entry are separate records, joined by “and”; a condition that tells them apart may be missing. Identical values can stand only once. Square brackets hold non-standard residues; d marks the D form. Ends that are not written are not given here. Dmt = Cc1cc(O)cc(C)c1C[C@H](N)C(=O)O

Experiments:
Assay type in all cases: in vivo
TNF-alpha = test: Plasma TNF-alpha (double antibody sandwich ELISA) in dog model of heart failure; settings: for plasma TNF-alpha levels (FIG. 4), in words: HF dogs
Method: The methods of Example 1 was used induce heart failure, administer peptide or vehicle, and to collect plasma samples for analysis. Fourteen dogs were used in this example. Half the dogs were treated with the peptide; the other half were treated with drug vehicle and served as controls. Peptide treatment was started in both groups upon induction of heart failure (HF), defined as left ventricular ejection fraction of approximately 30%.
TNF-alpha was quantified in EDTA-plasma using a double antibody sandwich ELISA. Briefly, TNF-alpha (Canine TNFα Duo Sett, Cat #DY1507) was purchased from R&D Systems. The assay was performed based on instructions provided by the supplier with minor modifications. The amount of EDTA-plasma incubated with antibody plate was 150 μl and incubation time was 18 hours at 4° C. Using standard curves and software, the concentration of TNFα was expressed as pg/ml.

NT-pro BNP = test: Plasma NT-pro BNP (double antibody sandwich ELISA) in dog model of heart failure; settings: for plasma NT-pro BNP levels (FIG. 5), in words: HF dogs
Method: Heart failure was induced in dogs via multiple sequential intracoronary microembolizations as described in Sabbah, et al., Am J Physiol. (1991) 260:H1379-84, herein incorporated by reference in its entirety and summarized in Example 1.
Heart failure was induced as described in Example 1. […] Half the dogs were treated with the peptide; the other half were treated with drug vehicle and served as controls. Peptide treatment was started upon induction of heart failure (HF), defined as left ventricular ejection fraction of approximately 30%. The daily dose of the peptide was 0.5 mg/kg/day administered intravenously. Blood samples were drawn on EDTA anticoagulant and were centrifuged at 2,500 RPM and the plasma extracted, aliquoted in 1 ml volumes into crystat tubes and stored at −70° C. until assayed. Once the follow-up was completed in all dogs, the plasma samples were thawed to room temperature and NT-pro BNP was assayed.
Nt-pro BNP (pg/ml) was determined in EDTA-plasma on the principle of the double antibody sandwich Enzyme-linked immunosorbent assay (ELISA). The assay was performed based upon the instructions came along with the assay kit (NT-pro BNP, Kamiya Biomedical Company, Cat #KT-23770). Using standard curves with the help of Software (MasterPlex-2010), the concentration of each biomarker was determined.

[1] = system: mitochondrial ATP-sensitive potassium channel (mK ATP); test: mK ATP activation in LV mitochondria (thallium-sensitive fluorophore assay), dog model of heart failure; settings: LV mitochondria of HF dogs after three months, 0.5 mg/kg/day, n=5; control 1372±112, p<0.05
Method: (§1) Heart failure was induced in dogs via multiple sequential intracoronary microembolizations as described in Sabbah, et al., Am J Physiol. (1991) 260:H1379-84, herein incorporated by reference in its entirety.
(§2) Heart failure was induced as described in Example 1. […] Half the dogs were treated with the peptide (n=5); the other half were treated with drug vehicle and served as controls (n=5). Peptide treatment was started upon induction of heart failure (HF), defined as left ventricular ejection fraction of approximately 30%. The daily dose of the peptide was 0.5 mg/kg/day administered intravenously for three months. Subcutaneous daily injections of saline were administered to the controls. Left ventricular tissue was harvested at the end of the three months of treatment. Mitochondria were isolated from the tissue. MK ATP activation was measured using the thallium-sensitive fluorophore assay kit and quantified in relative fluorescence units (RFU) per mg protein. Mitochondrial ATP to ADP ratio was measured using the bioluminescent ApoSENSOR™ assay kit (Enzo Life Sciences, Farmingdale, NY).

[2] = system: Mitochondrial ATP to ADP ratio; test: Mitochondrial ATP to ADP ratio (ApoSENSOR assay) in LV mitochondria, dog model of heart failure; settings: LV mitochondria of HF dogs after three months, 0.5 mg/kg/day, n=5; control 0.38±0.04, p<0.05
Method: as §2

Taz1 = Taz1 mRNA in LV tissue (real-time PCR), dog model of heart failure; settings: LV tissue of HF dogs, 3 months, 0.5 mg/kg once daily s.c., n=6; untreated HF decreased 2.25-fold vs normal; normalized to GAPDH
Method: as §1
(§3) Twelve dogs were subject to coronary microembolization-induced heart failure (LV ejection fraction ˜30%) as described in Example 1. […] RNA was prepared from LV tissue of all 12 dogs at the end of the treatment phase and from the LV of 6 normal (NL) dogs for comparison. mRNA levels of Taz1, MLCL AT1 and ALCAT1 were determined by real-time PCR. Changes in mRNA expression were expressed as fold changes using the CT Method with normalization to […] (GAPDH) as internal control.

MLCL AT1 = MLCL AT1 mRNA in LV tissue (real-time PCR), dog model of heart failure; settings: LV tissue of HF dogs, 3 months, 0.5 mg/kg once daily s.c., n=6; untreated HF increased 2.60-fold vs normal; normalized to GAPDH
Method: as §1, §3

ALCAT1 = ALCAT1 mRNA in LV tissue (real-time PCR), dog model of heart failure; settings: LV tissue of HF dogs, 3 months, 0.5 mg/kg once daily s.c., n=6; untreated HF increased 3.56-fold vs normal; normalized to GAPDH
Method: as §1, §3

[3] = plasma, peptide group, individual dogs, heart failure prior to initiating therapy

D-Arg-2′,6′-Dmt-Lys-Phe-NH2 ([dR][Dmt]KF-NH2) [aromatic-cationic peptide]
plasma TNF-alpha levels (FIG. 4), in words (TNF-alpha; treatment for 12 weeks): near normal levels | plasma TNF-alpha levels (FIG. 4), in words (TNF-alpha; treatment for six weeks): reduced TNF-alpha levels | TNF-α concentration, 6 Wk (TNF-alpha; plasma, individual HF dogs, 6 weeks after initiating therapy): 3.27 pg/mL and 3.08 pg/mL and 3.50 pg/mL and 3.16 pg/mL and 3.72 pg/mL and 3.12 pg/mL and 2.60 pg/mL | TNF-α concentration, 12 Wk (TNF-alpha; plasma, individual HF dogs, 12 weeks after initiating therapy): 1.14 pg/mL and 1.42 pg/mL and 1.18 pg/mL and 1.75 pg/mL and 1.69 pg/mL and 1.53 pg/mL and 1.35 pg/mL | TNF-α concentration, 6 Wk, Mean (TNF-alpha; plasma, mean of 7 HF dogs, 6 weeks after initiating therapy): 3.21 pg/mL | TNF-α concentration, 12 Wk, Mean (TNF-alpha; plasma, mean of 7 HF dogs, 12 weeks after initiating therapy): 1.44 pg/mL | TNF-α concentration, BL, Mean (TNF-alpha; plasma, peptide group mean (7 dogs), baseline (before HF and treatment)): 1.24 pg/mL | TNF-α concentration, PRE, Mean (TNF-alpha; plasma, peptide group mean (7 dogs), heart failure prior to initiating therapy): 4.36 pg/mL | TNF-α concentration, BL (TNF-alpha; plasma, peptide group, individual dogs, baseline (before HF and treatment)): 0.90 pg/mL and 0.97 pg/mL and 1.02 pg/mL and 1.85 pg/mL and 1.30 pg/mL and 1.11 pg/mL and 1.54 pg/mL | TNF-α concentration, PRE (TNF-alpha; [3]): 4.26 pg/ml (2×) and 3.96 pg/ml and 4.69 pg/ml and 4.59 pg/ml and 4.31 pg/ml and 4.42 pg/ml | plasma NT-pro BNP levels (FIG. 5), in words (NT-pro BNP; treatment for 12 weeks): normal or near normal levels | plasma NT-pro BNP levels (FIG. 5), in words (NT-pro BNP; treatment for six weeks): reduced NT-pro BNP levels | NT-pro BNP, 6Wk, AVG (NT-pro BNP; plasma, average of 7 HF dogs, 6 weeks after initiating therapy, 0.5 mg/kg/day): 667 pg/mL | NT-pro BNP, 12 Wk, AVG (NT-pro BNP; plasma, average of 7 HF dogs, 12 weeks after initiating therapy, 0.5 mg/kg/day): 354 pg/mL | NT-pro BNP, 6Wk (NT-pro BNP; plasma, individual HF dogs, 6 weeks after initiating therapy, 0.5 mg/kg/day): 695 pg/ml (2×) and 559 pg/ml and 796 pg/ml and 680 pg/ml and 593 pg/ml and 654 pg/ml | NT-pro BNP, 12 Wk (NT-pro BNP; plasma, individual HF dogs, 12 weeks after initiating therapy, 0.5 mg/kg/day): 299 pg/mL and 422 pg/mL and 234 pg/mL and 294 pg/mL and 417 pg/mL and 393 pg/mL and 423 pg/mL | NT-pro BNP, BL, AVG (NT-pro BNP; plasma, peptide group average (7 dogs), baseline before heart failure (before treatment)): 278 pg/mL | NT-pro BNP, Pre, AVG (NT-pro BNP; plasma, peptide group average (7 dogs), heart failure prior to initiating therapy): 1128 pg/mL | NT-pro BNP, BL (NT-pro BNP; plasma, peptide group, individual dogs, baseline before heart failure (before treatment)): 257 pg/mL and 203 pg/mL and 271 pg/mL and 320 pg/mL and 289 pg/mL and 265 pg/mL and 346 pg/mL | NT-pro BNP, Pre (NT-pro BNP; [3]): 1512 pg/mL and 1223 pg/mL and 1078 pg/mL and 1034 pg/mL and 1018 pg/mL and 1090 pg/mL and 941 pg/mL | activation of mK ATP [1]: 2775±254 relative fluorescence units (R | ATP/ADP (mitochondrial ATP to ADP ratio) [2]: 1.16±0.15 | Taz1 mRNA: attenuated decrease, fold (Taz1): 1.23 fold | MLCL AT1 mRNA: reduced increase, fold (MLCL AT1): 1.18 fold | ALCAT1 mRNA: reduced increase, fold (ALCAT1): 1.54 fold
